According to ChEMBL document CHEMBL1201862, “PubChem BioAssay data set” (2004):
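Following 48 hours of exposure in 96-well plates, responses at five concentrations were used to interpolate endpoints linearly. Abbreviation: GI50, concentration required for 50% inhibition of growth.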 Calls of active or inactive are those of the source. Rule as the data show it: active = GI50 up to about 1.1 µM and inactive = higher.

Tests used:
Test in all cases: NCI-60 cell line screen, 48 h
SN12C = system: SN12C
UO-31 = system: UO-31
SF-295 = system: SF-295
RXF 393 = system: RXF 393
SK-MEL-5 = system: SK-MEL-5
MOLT-4 = system: MOLT-4
NCI-H460 = system: NCI-H460
HCT-116 = system: HCT-116
OVCAR-4 = system: OVCAR-4
SW-620 = system: SW-620
BT-549 = system: BT-549
OVCAR-3 = system: OVCAR-3
MDA-N = system: MDA-N
HL-60 = system: HL-60
TK-10 = system: TK-10
COLO 205 = system: COLO 205
786-0 = system: 786-0
NCI-H23 = system: NCI-H23
HCC 2998 = system: HCC 2998

Measured: GI50

CCCCC1=C(C(=O)N2CCOCC2)C2(OCCO2)C1=O
inactive: SN12C 13.5 µM | UO-31 15.5 µM | SF-295 32.5 µM | RXF 393 21.1 µM | SK-MEL-5 16.5 µM | MOLT-4 51.2 µM | NCI-H460 24.8 µM | HCT-116 18.5 µM | OVCAR-4 23.1 µM | SW-620 27.3 µM | BT-549 23 µM | OVCAR-3 19.5 µM | MDA-N 21.4 µM | HL-60 30.2 µM | TK-10 33.3 µM | COLO 205 17.7 µM | 786-0 18.2 µM | NCI-H23 18.3 µM

CCC/C(Cl)=N\OC(=O)Nc1ccc(F)c([N+](=O)[O-])c1
inactive: SN12C 27.2 µM | UO-31 13.7 µM | SF-295 33.8 µM | SK-MEL-5 16.7 µM | MOLT-4 3.41 µM | NCI-H460 12.5 µM | HCT-116 26.2 µM | HCC 2998 14.5 µM | OVCAR-4 15.6 µM | SW-620 4.8 µM | BT-549 10.2 µM | OVCAR-3 15.6 µM | MDA-N 21.1 µM | TK-10 17 µM | COLO 205 3.54 µM | 786-0 16.8 µM | NCI-H23 12.9 µM

C1=CC2(C=CC13O[C@H](C1CCCCC1)[C@@H](C1CCCCC1)O3)O[C@H](C1CCCCC1)[C@@H](C1CCCCC1)O2
inactive: SN12C > 50 µM | UO-31 > 50 µM | SF-295 > 50 µM | RXF 393 > 50 µM | SK-MEL-5 > 50 µM | MOLT-4 > 50 µM | NCI-H460 > 50 µM | HCT-116 > 50 µM | OVCAR-4 > 50 µM | SW-620 > 50 µM | BT-549 > 50 µM | OVCAR-3 > 50 µM | MDA-N > 50 µM | HL-60 > 50 µM | TK-10 > 50 µM | COLO 205 > 50 µM | 786-0 > 50 µM | NCI-H23 > 50 µM

CCc1oc2ccccc2c1C(=O)c1cc(Br)c(O)c(Br)c1 [BENZBROMARONE]
inactive: SN12C 26 µM | UO-31 21.6 µM | SF-295 31.8 µM | RXF 393 15.3 µM | SK-MEL-5 17.4 µM | MOLT-4 26.9 µM | NCI-H460 18.4 µM | HCT-116 22.4 µM | OVCAR-4 30 µM | SW-620 35.6 µM | BT-549 28.2 µM | OVCAR-3 18.2 µM | MDA-N 30.2 µM | HL-60 13.6 µM | TK-10 24.7 µM | COLO 205 20.9 µM | 786-0 29.9 µM | NCI-H23 24.5 µM

O=C(O)C(CCc1ccccc1)N1C(=O)c2ccccc2C1=O (configuration not stated)
inactive: SN12C > 100 µM | UO-31 > 100 µM | SF-295 > 100 µM | RXF 393 > 100 µM | SK-MEL-5 > 100 µM | MOLT-4 > 100 µM | NCI-H460 > 100 µM | HCT-116 > 100 µM | OVCAR-4 > 100 µM | SW-620 > 100 µM | BT-549 > 100 µM | OVCAR-3 > 100 µM | MDA-N > 100 µM | HL-60 > 100 µM | TK-10 > 100 µM | COLO 205 > 100 µM | 786-0 > 100 µM | NCI-H23 > 100 µM

COc1cc(S(=O)(=O)Nc2nc(-c3ccc(N4C(=O)/C(=C\c5cccs5)N=C4c4ccccc4)cc3)cs2)ccc1Cl
inactive: SN12C 58.5 µM | UO-31 > 100 µM | SF-295 > 100 µM | RXF 393 32.1 µM | SK-MEL-5 43.2 µM | MOLT-4 43.9 µM | NCI-H460 > 100 µM | HCT-116 49.2 µM | OVCAR-4 57.3 µM | SW-620 > 100 µM | BT-549 34.5 µM | OVCAR-3 > 100 µM | MDA-N 43.1 µM | HL-60 36.7 µM | TK-10 > 100 µM | COLO 205 > 100 µM | 786-0 > 100 µM | NCI-H23 34.8 µM
